{"source": "patent US12331312B2", "about": "“Deterministic culturing of single cells” (Purdue Research Foundation, priority 2020, dated 2025)", "system": "MCF7 tumors", "experiment": "Paclitaxel treatment of single-cell-derived MCF7 tumors on collagen islands; apoptosis counted by Hoechst nuclear morphology", "type": "cell-based", "protocol": "Hoechst staining was used to visualize cells in the tumor using fluorescence microscopy (FIG. 4). Specifically, cells were washed in PBS and fixed in 4% paraformaldehyde before staining with 1:1000 PBS diluted solution of 20 mM Hoechst 33342 (Thermo Fischer Scientific, Waltham, MA) for 10 minutes. After washing once with PBS, tumors were imaged with a ZEISS LSM 800 confocal microscope with an excitation laser of 401 nm wavelength and with 10× magnification lens (EC Plan-Neofluar® 10×/0.30 M27). Bright-field and fluorescence images were also obtained using NIKON ECLIPSE® 80i upright fluorescence microscope, which were used to analyze the morphology of the tumors with ImageJ. […]\nFor each tumor, dead and live nuclei at every alternate plane of the z-stack were manually counted using Fiji cell counting software. […]\nSince each island comprises a relatively small amount of collagen (e.g. as opposed to an entire well of a 96-well plate), excess dye that inadvertently diffuses into the collagen can be washed easily to reduce any background fluorescence signal. Live and dead cells (the latter indicated by smaller or fragmented nuclei with intense staining due to DNA condensation) from individual planes of z-stack confocal images of each tumor were manually counted according to a procedure described by Crowley et al. (see, e.g., Crowley et al., Cold Spring Harb. Protoc. pdb.prot087205 2016). […]"}
{"smiles": "CC(=O)O[C@H]1C(=O)[C@@]2(C)[C@H]([C@H](OC(=O)c3ccccc3)[C@]3(O)C[C@H](OC(=O)[C@H](O)[C@@H](NC(=O)c4ccccc4)c4ccccc4)C(C)=C1C3(C)C)[C@]1(OC(C)=O)CO[C@@H]1C[C@@H]2O", "note": "[Paclitaxel]", "values": [{"measurement": "average cell death (percentage of apoptotic cells)", "setting": "13-day old MCF7 tumors, Paclitaxel 5 nM, 20 nM and 100 nM for 24 hours, Hoechst 33342 nuclear morphology", "value": "increased with drug concentration"}, {"measurement": "variation in the response of individual tumors", "setting": "each drug concentration (5, 20, 100 nM), 24 hours", "value": "significant variation in the response of individual tumors for each drug concentration"}]}
